Read-outs that look alike come from different tables or passages of the source.
Assays:
HepG-2 = experiment: In vitro cytotoxicity, MTT assay, HepG-2; type: cell-based; conditions: 72 h, average of two separate determinations
A549 = experiment: In vitro cytotoxicity, MTT assay, A549; type: cell-based; conditions: A549 cells, 72 h, average of two separate determinations
PC-3 = experiment: In vitro cytotoxicity, MTT assay, PC-3; type: cell-based; conditions: PC-3 cells, 72 h, average of two separate determinations
MCF-7 = experiment: In vitro cytotoxicity, MTT assay, MCF-7; type: cell-based; conditions: MCF-7 cells
PI3Kα = PI3Kα (Homo sapiens, UniProt P42336); experiment: PI3Kα kinase assay (Kinase-Glo Luminescent Kinase Assay); type: biochemical; conditions: 1 µM ATP, 60 min, average of two determinations
PI3Kα, sequence (P42336 whole entry): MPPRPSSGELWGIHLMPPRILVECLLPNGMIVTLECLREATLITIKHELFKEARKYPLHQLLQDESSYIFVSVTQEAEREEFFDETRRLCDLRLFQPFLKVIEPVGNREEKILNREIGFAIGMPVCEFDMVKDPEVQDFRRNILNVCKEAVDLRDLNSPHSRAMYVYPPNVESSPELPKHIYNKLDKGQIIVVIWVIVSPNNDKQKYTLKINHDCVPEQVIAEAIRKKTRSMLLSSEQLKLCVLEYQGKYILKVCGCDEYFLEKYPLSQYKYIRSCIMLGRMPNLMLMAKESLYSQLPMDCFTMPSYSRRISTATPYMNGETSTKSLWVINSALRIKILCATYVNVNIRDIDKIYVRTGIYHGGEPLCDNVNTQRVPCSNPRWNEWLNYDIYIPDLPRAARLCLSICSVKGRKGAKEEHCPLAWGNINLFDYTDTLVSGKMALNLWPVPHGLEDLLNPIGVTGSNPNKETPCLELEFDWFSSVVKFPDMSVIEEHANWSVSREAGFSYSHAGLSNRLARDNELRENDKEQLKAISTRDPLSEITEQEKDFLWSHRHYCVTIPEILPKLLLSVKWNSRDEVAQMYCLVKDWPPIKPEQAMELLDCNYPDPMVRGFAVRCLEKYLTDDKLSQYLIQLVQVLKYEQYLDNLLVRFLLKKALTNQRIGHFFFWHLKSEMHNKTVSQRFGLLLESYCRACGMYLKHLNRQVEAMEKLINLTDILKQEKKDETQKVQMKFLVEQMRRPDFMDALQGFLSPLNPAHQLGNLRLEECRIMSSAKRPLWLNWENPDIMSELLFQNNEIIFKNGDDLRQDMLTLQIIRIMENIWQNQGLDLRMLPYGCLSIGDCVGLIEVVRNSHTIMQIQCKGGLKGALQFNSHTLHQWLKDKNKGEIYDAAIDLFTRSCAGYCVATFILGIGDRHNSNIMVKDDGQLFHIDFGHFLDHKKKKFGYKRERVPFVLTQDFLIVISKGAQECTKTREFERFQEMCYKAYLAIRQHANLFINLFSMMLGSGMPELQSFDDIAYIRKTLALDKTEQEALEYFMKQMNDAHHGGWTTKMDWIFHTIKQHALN
PI3Kα, sequence (P27986 whole entry partner): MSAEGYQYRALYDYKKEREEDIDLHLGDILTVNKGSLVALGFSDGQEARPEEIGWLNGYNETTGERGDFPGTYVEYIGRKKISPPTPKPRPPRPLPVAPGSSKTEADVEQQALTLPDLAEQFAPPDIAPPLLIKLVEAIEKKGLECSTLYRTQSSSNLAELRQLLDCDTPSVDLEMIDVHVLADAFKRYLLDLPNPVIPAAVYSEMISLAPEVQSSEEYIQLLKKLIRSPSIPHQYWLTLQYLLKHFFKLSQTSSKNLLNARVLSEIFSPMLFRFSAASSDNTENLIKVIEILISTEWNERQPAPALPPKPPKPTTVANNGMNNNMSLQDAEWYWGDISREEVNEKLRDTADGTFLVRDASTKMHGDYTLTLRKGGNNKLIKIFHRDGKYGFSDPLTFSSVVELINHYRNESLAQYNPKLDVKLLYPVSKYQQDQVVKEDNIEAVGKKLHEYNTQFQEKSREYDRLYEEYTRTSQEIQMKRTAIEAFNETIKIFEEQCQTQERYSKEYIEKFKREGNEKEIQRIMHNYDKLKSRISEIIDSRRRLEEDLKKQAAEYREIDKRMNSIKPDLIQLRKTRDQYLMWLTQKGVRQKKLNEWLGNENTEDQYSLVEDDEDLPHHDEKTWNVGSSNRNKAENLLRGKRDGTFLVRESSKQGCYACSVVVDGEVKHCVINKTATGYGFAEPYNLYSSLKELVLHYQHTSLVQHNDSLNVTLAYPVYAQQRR

mTOR = mTOR (Homo sapiens, UniProt P42345); experiment: mTOR kinase assay (Kinase-Glo Luminescent Kinase Assay); type: biochemical; conditions: 10 µM ATP, 60 min, average of two determinations
[1] = Homo sapiens, HepG2, HepG-2 cells
[2] = Homo sapiens, MCF7, MTT, 72 h, average of two separate determinations, read-out: IC50 (µM) MCF-7

Row | Compound | IC50 (HepG-2; HepG-2 cells) [µM] | IC50 (A549) [µM] | IC50 (PC-3) [µM] | IC50 (MCF-7; MTT, 72 h, average of two separate determinations, read-out: IC50 (µM) MCF-7) [µM] | IC50 (MCF-7; read-out: IC50 value against MCF-7 cell (conclusions text, unit inferred)) [µM] | IC50 (PI3Kα) [µM] | IC50 (mTOR) [µM] | IC50 (HepG-2; [1]) [µM] | IC50 (A549; Homo sapiens) [µM] | IC50 (PC-3; Homo sapiens) [µM] | IC50 (MCF-7; [2]) [µM] | melting point [°C]
1 | CC(C)(C#N)c1ccc(Nc2c(NC(=O)NS(=O)(=O)c3ccc(F)cc3)cnc3ccc(Br)cc23)cc1 [19a, N-((6-Bromo-4-((4-(2-cyanopropan-2-yl)phenyl)amino)quinolin-3-yl)carbamoyl)-4-fluorobenzenesulfonamide carboxamide] | 33.3 ± 1.52 | 38.5 ± 1.04 | 66.6 ± 1.28 | 3.88 ± 0.58 | 2.88 ± 0.58 | 0.72 | 2.62 |  |  |  |  | 
2 | CC(C)(C#N)c1ccc(Nc2c(NC(=O)NS(=O)(=O)c3ccc(Cl)cc3)cnc3ccc(Br)cc23)cc1 [19b, N-((6-Bromo-4-((4-(2-cyanopropan-2-yl)phenyl)amino)quinolin-3-yl)carbamoyl)-4-chlorobenzenesulfonamide] |  |  |  |  |  |  |  | 30.2 ± 1.45 | > 100 | 34.3 ± 1.32 | 15.1 ± 1.1 | 279.2 to 280.1
3 | Cc1ccc(S(=O)(=O)NC(=O)Nc2cnc3ccc(Br)cc3c2Nc2ccc(C(C)(C)C#N)cc2)cc1 [19c, N-((6-Bromo-4-((4-(2-cyanopropan-2-yl)phenyl)amino)quinolin-3-yl)carbamoyl)-4-methylbenzenesulfonamide] |  |  |  |  |  |  |  | 31.2 ± 1.5 | 29 ± 1.31 | 40.6 ± 1.11 | 3.96 ± 0.59 | 289.2 to 290.4
4 | CC(C)(C)c1ccc(S(=O)(=O)NC(=O)Nc2cnc3ccc(Br)cc3c2Nc2ccc(C(C)(C)C#N)cc2)cc1 [19d, N-((6-Bromo-4-((4-(2-cyanopropan-2-yl)phenyl)amino)quinolin-3-yl)carbamoyl)-4-(tert-butyl)benzenesulfonamide] |  |  |  |  |  |  |  | > 100 | 30.6 ± 1.45 | 68.2 ± 1.32 | 9.95 ± 0.99 | 287.2 to 288.4
5 | COc1ccc(Nc2c(NC(=O)NS(=O)(=O)c3ccc(F)cc3)cnc3ccc(Br)cc23)cc1 [20a, N-((6-Bromo-4-((4-methoxyphenyl)amino)quinolin-3-yl)carbamoyl)-4-fluorobenzenesulfonamide] |  |  |  |  |  |  |  | 20.3 ± 1.04 | 26.3 ± 1.13 | > 100 | 7.65 ± 0.88 | 289.1 to 290.2
6 | COc1ccc(Nc2c(NC(=O)NS(=O)(=O)c3ccc(Cl)cc3)cnc3ccc(Br)cc23)cc1 [20b, N-((6-Bromo-4-((4-methoxyphenyl)amino)quinolin-3-yl)carbamoyl)-4-chlorobenzenesulfonamide] |  |  |  |  |  |  |  | 22.6 ± 1.12 | 30.2 ± 1.23 | > 100 | 10.7 ± 0.97 | 282.2 to 283.1
7 | COc1ccc(Nc2c(NC(=O)NS(=O)(=O)c3ccc(C)cc3)cnc3ccc(Br)cc23)cc1 [20c, N-((6-Bromo-4-((4-methoxyphenyl)amino)quinolin-3-yl)carbamoyl)-4-methylbenzenesulfonamide] |  |  |  |  |  |  |  | 26.8 ± 1.22 | 23.4 ± 1.12 | > 100 | 4.94 ± 0.64 | 279.2 to 280.6
8 | COc1ccc(Nc2c(NC(=O)NS(=O)(=O)c3ccc(C(C)(C)C)cc3)cnc3ccc(Br)cc23)cc1 [20d, N-((6-Bromo-4-((4-methoxyphenyl)amino)quinolin-3-yl)carbamoyl)-4-(tert-butyl)benzenesulfonamide] |  |  |  |  |  |  |  | 33.2 ± 1.26 | 32.1 ± 1.18 | > 100 | 10.5 ± 0.98 | 263.3 to 264.2
9 | O=C(Nc1cnc2ccc(Br)cc2c1Nc1ccc(Br)cc1)NS(=O)(=O)c1ccc(F)cc1 [21a, N-((6-Bromo-4-((4-bromophenyl)amino)quinolin-3-yl)carbamoyl)-4-fluorobenzenesulfonamide] |  |  |  |  |  |  |  | 45.7 ± 1.66 | 59 ± 1.76 | > 100 | 37.6 ± 1.57 | 278.7 to 279.5
10 | O=C(Nc1cnc2ccc(Br)cc2c1Nc1ccc(Br)cc1)NS(=O)(=O)c1ccc(Cl)cc1 [21b, N-((6-Bromo-4-((4-bromophenyl)amino)quinolin-3-yl)carbamoyl)-4-chlorobenzenesulfonamide] |  |  |  |  |  |  |  | 11.1 ± 1.04 | 71.1 ± 1.85 | > 100 | 13.8 ± 1.14 | 284.1 to 285.4
11 | Cc1ccc(S(=O)(=O)NC(=O)Nc2cnc3ccc(Br)cc3c2Nc2ccc(Br)cc2)cc1 [21c, N-((6-Bromo-4-((4-bromophenyl)amino)quinolin-3-yl)carbamoyl)-4-methylbenzenesulfonamide] |  |  |  |  |  |  |  | 31.1 ± 1.49 | 22.7 ± 1.35 | > 100 | 16.6 ± 1.22 | 279.6 to 280.2
12 | CC(C)(C)c1ccc(S(=O)(=O)NC(=O)Nc2cnc3ccc(Br)cc3c2Nc2ccc(Br)cc2)cc1 [21d, N-((6-Bromo-4-((4-bromophenyl)amino)quinolin-3-yl)carbamoyl)-4-(tert-butyl)benzenesulfonamide] |  |  |  |  |  |  |  | 17 ± 1.22 | 16.2 ± 1.2 | > 100 | 52.7 ± 1.72 | 259.4 to 260.3
13 | O=C(Nc1cnc2ccc(Br)cc2c1Nc1ccc(F)c(Cl)c1)NS(=O)(=O)c1ccc(F)cc1 [22a, N-((6-Bromo-4-((3-chloro-4-fluorophenyl)amino)quinolin-3-yl)carbamoyl)-4-fluorobenzenesulfonamide] |  |  |  |  |  |  |  | 19.63 ± 0.18 | 12 ± 0.91 | 52.5 ± 1.03 | 22.8 ± 1.35 | 295.1 to 296.3
14 | O=C(Nc1cnc2ccc(Br)cc2c1Nc1ccc(F)c(Cl)c1)NS(=O)(=O)c1ccc(Cl)cc1 [22b, N-((6-Bromo-4-((3-chloro-4-fluorophenyl)amino)quinolin-3-yl)carbamoyl)-4-chlorobenzenesulfonamide] |  |  |  |  |  |  |  | 6.44 ± 0.89 | > 100 | 17.7 ± 0.95 | 6.84 ± 0.83 | 282.3 to 283.7
15 | Cc1ccc(S(=O)(=O)NC(=O)Nc2cnc3ccc(Br)cc3c2Nc2ccc(F)c(Cl)c2)cc1 [22c, N-((6-Bromo-4-((3-chloro-4-fluorophenyl)amino)quinolin-3-yl)carbamoyl)-4-methylbenzenesulfonamide] |  |  |  |  |  |  |  | 11.3 ± 0.84 | > 100 | 16.7 ± 0.88 | 16.8 ± 1.22 | 278.7 to 279.9
16 | CC(C)(C)c1ccc(S(=O)(=O)NC(=O)Nc2cnc3ccc(Br)cc3c2Nc2ccc(F)c(Cl)c2)cc1 [22d, N-((6-Bromo-4-((3-chloro-4-fluorophenyl)amino)quinolin-3-yl)carbamoyl)-4-(tert-butyl)benzenesulfonamide] |  |  |  |  |  |  |  | 28.4 ± 0.89 | 22.4 ± 1.21 | 29.3 ± 2.23 | 46.3 ± 1.67 | 290.1 to 291.6
17 | COc1ccc(Nc2c(NC(=O)NS(=O)(=O)c3ccc(Cl)cc3)c(C)nc3ccc(OC)cc23)cc1 [23a, 4-Chloro-N-((6-methoxy-4-((4-methoxyphenyl)amino)-2-methylquinolin-3-yl)carbamoyl)benzenesulfonamide] |  |  |  |  |  |  |  | 16 ± 1.1 | 39.8 ± 1.59 | > 100 | 6.3 ± 0.79 | 290.8 to 291.2
18 | COc1ccc(Nc2c(NC(=O)NS(=O)(=O)c3ccc(C(C)(C)C)cc3)c(C)nc3ccc(OC)cc23)cc1 [23b, 4-(tert-Butyl)-N-((6-methoxy-4-((4-methoxyphenyl)amino)-2-methylquinolin-3-yl)carbamoyl)benzenesulfonamide] |  |  |  |  |  | > 10 | > 10 | 2.71 ± 0.43 | 7.47 ± 0.87 | > 100 | 6.55 ± 0.81 | 291.2 to 292.7
19 | COc1ccc2nc(C)c(NC(=O)NS(=O)(=O)c3ccc(F)cc3)c(Nc3ccc(Br)cc3)c2c1 [23c, N-((4-((4-Bromophenyl)amino)-6-methoxy-2-methylquinolin-3-yl)carbamoyl)-4-fluorobenzenesulfonamide] |  |  |  |  |  |  |  | 32.1 ± 1.12 | 13 ± 0.84 | 39.8 ± 1.25 | 25.4 ± 1.43 | 356.1 to 357.3
20 | COc1ccc2nc(C)c(NC(=O)NS(=O)(=O)c3ccc(F)cc3)c(Nc3ccc(F)c(Cl)c3)c2c1 [23d, N-((4-((3-Chloro-4-fluorophenyl)amino)-6-methoxy-2-methylquinolin-3-yl)carbamoyl)-4-fluorobenzenesulfonamide] |  |  |  |  |  |  |  | 6.08 ± 1.04 | 38.1 ± 0.96 | 57.9 ± 0.99 | 57 ± 1.75 | 285.3 to 286.1
21 | Cn1c(=O)n(-c2ccc(C(C)(C)C#N)cc2)c2c3cc(-c4cnc5ccccc5c4)ccc3ncc21 [NVP-BEZ235, reference compound] |  |  |  |  |  |  |  | 0.54 ± 0.83 | 0.36 ± 0.86 | 0.2 ± 0.11 | 0.14 ± 0.1 | 

From article PMC6099940, “Design, Synthesis and Biological Evaluation of Novel Phenylsulfonylurea Derivatives as PI3K/mTOR Dual Inhibitors” (Molecules : A Journal of Synthetic Chemistry and Natural …, 2018)
